Measured values reported in PubChem BioAssay AID1963965 (Molecular Pharmacology Branch, DTP, NCI, 2024).

Tested on: 996289-038-R-J1-PDC spheroid viability
Assay: Anticancer human tumor 996289-038-R-J1-PDC patient-derived colon adenocarcinoma cell line growth inhibition [PI3K]
Conditions: spheroids with HUVEC and MSC; for viability, T/C: stronger effect = lower value
How it was run: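 Agents were dosed from a top concentration near clinical Cmax (otherwise 10 microM) in half-log decrements, alone or combined with PI3K inhibitors. The spheroids contain tumor cells plus endothelial (HUVEC) and MSC stroma; viability is measured.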
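Note: spheroids exposed to compounds for seven days before viability read.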
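Throughout, for viability, T/C: luminescence used as a proxy for viable cell amount; percent viability relative to DMSO vehicle control as 100%.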

**Q.** Which IC50 (curve of first compound, second compound 0.00316 µM) does the source give for CC(C)NCC(C(=O)N1CCN(c2ncnc3c2C(C)CC3O)CC1)c1ccc(Cl)cc1 (stereo unspecified) + CC(Nc1ccc2c(c1)OCCn1cc(N3C(=O)OCC3C(F)F)nc1-2)C(N)=O here?
**A.** > 10 µM

**Q.** And the IC50 (curve of first compound, second compound 0.01 µM)?
**A.** > 10 µM

**Q.** What about the IC50 (curve of first compound, second compound 0.0316 µM) of the same compound?
**A.** > 10 µM

**Q.** And the IC50 (curve of first compound, second compound 0.1 µM)?
**A.** > 10 µM

**Q.** What about the IC50 (curve of first compound, second compound 0.316 µM) of the same compound?
**A.** > 10 µM

**Q.** What about the IC50 (curve of first compound, second compound 1 µM) of the same compound?
**A.** > 10 µM

**Q.** What about the viability, T/C (second compound 0.00316 µM, first compound 0.0316 µM) of the same compound?
**A.** 86%

**Q.** What about the viability, T/C (second compound 0.00316 µM, first compound 0.1 µM) of the same compound?
**A.** 95.3%

**Q.** What about the viability, T/C (second compound 0.00316 µM, first compound 0.316 µM) of the same compound?
**A.** 98.6%

**Q.** What about the viability, T/C (second compound 0.00316 µM, first compound 1 µM) of the same compound?
**A.** 98.1%

**Q.** And the viability, T/C (second compound 0.00316 µM, first compound 3.16 µM)?
**A.** 85.3%

**Q.** What about the viability, T/C (second compound 0.00316 µM, first compound 10 µM) of the same compound?
**A.** 66.8%

**Q.** And the viability, T/C (second compound 0.01 µM, first compound 0.0316 µM)?
**A.** 87.2%

**Q.** And the viability, T/C (second compound 0.01 µM, first compound 0.1 µM)?
**A.** 88%

**Q.** And the viability, T/C (second compound 0.01 µM, first compound 0.316 µM)?
**A.** 91.6%

**Q.** And the viability, T/C (second compound 0.01 µM, first compound 1 µM)?
**A.** 91.8%

**Q.** What about the viability, T/C (second compound 0.01 µM, first compound 3.16 µM) of the same compound?
**A.** 82.1%

**Q.** What about the viability, T/C (second compound 0.01 µM, first compound 10 µM) of the same compound?
**A.** 54.7%

**Q.** What about the viability, T/C (second compound 0.0316 µM, first compound 0.0316 µM) of the same compound?
**A.** 105%

**Q.** What about the viability, T/C (second compound 0.0316 µM, first compound 0.1 µM) of the same compound?
**A.** 91.6%

**Q.** And the viability, T/C (second compound 0.0316 µM, first compound 0.316 µM)?
**A.** 88.7%

**Q.** What about the viability, T/C (second compound 0.0316 µM, first compound 1 µM) of the same compound?
**A.** 88.4%

**Q.** And the viability, T/C (second compound 0.0316 µM, first compound 3.16 µM)?
**A.** 78.5%

**Q.** What about the viability, T/C (second compound 0.0316 µM, first compound 10 µM) of the same compound?
**A.** 53.6%

**Q.** And the viability, T/C (second compound 0.1 µM, first compound 0.0316 µM)?
**A.** 79.8%

**Q.** And the viability, T/C (second compound 0.1 µM, first compound 0.1 µM)?
**A.** 71.1%

**Q.** And the viability, T/C (second compound 0.1 µM, first compound 0.316 µM)?
**A.** 76%

**Q.** And the viability, T/C (second compound 0.1 µM, first compound 1 µM)?
**A.** 80%

**Q.** And the viability, T/C (second compound 0.1 µM, first compound 3.16 µM)?
**A.** 62%

**Q.** And the viability, T/C (second compound 0.1 µM, first compound 10 µM)?
**A.** 67.5%

**Q.** What about the viability, T/C (second compound 0.316 µM, first compound 0.0316 µM) of the same compound?
**A.** 57.9%

**Q.** What about the viability, T/C (second compound 0.316 µM, first compound 0.1 µM) of the same compound?
**A.** 81.2%

**Q.** And the viability, T/C (second compound 0.316 µM, first compound 0.316 µM)?
**A.** 64.3%

**Q.** And the viability, T/C (second compound 0.316 µM, first compound 1 µM)?
**A.** 65%

**Q.** What about the viability, T/C (second compound 0.316 µM, first compound 3.16 µM) of the same compound?
**A.** 73.7%

**Q.** What about the viability, T/C (second compound 0.316 µM, first compound 10 µM) of the same compound?
**A.** 46%

**Q.** What about the viability, T/C (second compound 1 µM, first compound 0.0316 µM) of the same compound?
**A.** 64.9%

**Q.** What about the viability, T/C (second compound 1 µM, first compound 0.1 µM) of the same compound?
**A.** 57.1%

**Q.** And the viability, T/C (second compound 1 µM, first compound 0.316 µM)?
**A.** 53.5%

**Q.** What about the viability, T/C (second compound 1 µM, first compound 1 µM) of the same compound?
**A.** 55.3%

**Q.** And the viability, T/C (second compound 1 µM, first compound 3.16 µM)?
**A.** 52.5%

**Q.** And the viability, T/C (second compound 1 µM, first compound 10 µM)?
**A.** 53.5%

**Q.** With COc1c(OCCCN2CCOCC2)ccc2c3n(c(=NC(=O)c4cnc(N)nc4)nc12)CCN3 as the compound, how does the viability, T/C (compound 0.00316 µM) read?
**A.** 96.3% [middle of 8 runs]

**Q.** What about the viability, T/C (compound 0.01 µM) of the same compound?
**A.** 96.2% [middle of 8 runs]

**Q.** And the viability, T/C (compound 0.0316 µM)?
**A.** 76.4% [middle of 8 runs]

**Q.** And the viability, T/C (compound 0.1 µM)?
**A.** 61.7% [middle of 8 runs]

**Q.** What about the viability, T/C (compound 0.316 µM) of the same compound?
**A.** 36.1% [middle of 8 runs]

**Q.** And the viability, T/C (compound 1 µM)?
**A.** 21.6% [middle of 8 runs]

**Q.** And the IC50 (compound alone, run of 06/13/2023)?
**A.** 162 nM [middle of 8 runs]

**Q.** With CC(C)n1nc(-c2ccc3oc(N)nc3c2)c2c(N)ncnc21 as the compound, how does the viability, T/C (compound 0.000316 µM) read?
**A.** 105% [middle of 4 runs]

**Q.** And the viability, T/C (compound 0.001 µM)?
**A.** 85.2% [middle of 4 runs]

**Q.** What about the viability, T/C (compound 0.00316 µM) of the same compound?
**A.** 89.4% [middle of 4 runs]

**Q.** What about the viability, T/C (compound 0.01 µM) of the same compound?
**A.** 88.6% [middle of 4 runs]

**Q.** And the viability, T/C (compound 0.0316 µM)?
**A.** 67% [middle of 4 runs]

**Q.** What about the viability, T/C (compound 0.1 µM) of the same compound?
**A.** 35.7% [middle of 4 runs]

**Q.** What about the IC50 (curve of compound) of the same compound?
**A.** 58.6 nM [middle of 4 runs]
